US4742053A, “3-Isoquinoliniomethyl cephalosporin derivatives” (Banyu Pharmaceutical Co., Ltd., priority 1984, dated 1988)
Values after ≈ are worked out from the molar mass of the structure shown. Where two headings read alike, the source gives them in different places.

Columns and labels:
Assay in all cases: MIC by agar plate dilution method
Assay type in all cases: cell-based
P. aeruginosa AKR17 = details: Pseudomonas aeruginosa, AKR17, P. aeruginosa AKR17; 10^6 CFU/ml; read-out: Minimum Inhibitory Concentration
Method: (§1) The minimum inhibitory concentrations (MIC: μg/ml) of the compounds of the present invention against various microorganisms were measured by an agar plate dilution method (inoculum size: 10^6 CFU/ml) by using Sensitivity Disk Agar (Nissui) in comparison with Cefotaxime and Ceftazidime as comparative compounds.
(§2) Minimum Inhibitory Concentration (μg/ml; 10^6 CFU/ml)

P. aeruginosa AK109 = details: Pseudomonas aeruginosa, AK109, P. aeruginosa AK109; 10^6 CFU/ml; read-out: Minimum Inhibitory Concentration
Method: as §1, §2

P. cepacia 23 = details: Burkholderia cepacia; P. cepacia 23; 10^6 CFU/ml; read-out: Minimum Inhibitory Concentration
Method: as §1, §2

P. mirabilis JY10 = details: Proteus mirabilis; P. mirabilis JY10; 10^6 CFU/ml; read-out: Minimum Inhibitory Concentration
Method: as §1, §2

E. coli CSH = details: Escherichia coli, 10^6 CFU/ml, read-out: Minimum Inhibitory Concentration
Method: as §1, §2

E. coli W3630/Rms212 = details: Escherichia coli, W3630/RMS212, read-out: Minimum Inhibitory Concentration, E. coli W3630/Rms212; 10^6 CFU/ml
Method: as §1, §2

E. coli NIHJJC-2 = details: Escherichia coli, NIHJJC2, E. coli NIHJJC-2; 10^6 CFU/ml; read-out: Minimum Inhibitory Concentration
Method: as §1, §2

S. marcescens No. 16-2 = details: Serratia marcescens
Method: as §1, §2

E. coli W3630/Rms213 = details: Escherichia coli, W3630/RMS213, read-out: Minimum Inhibitory Concentration, E. coli W3630/Rms213; 10^6 CFU/ml
Method: as §1, §2

E. cloaceae Nek 39 = details: E. cloaceae Nek 39; 10^6 CFU/ml; read-out: Minimum Inhibitory Concentration
Method: as §1, §2

P. vulgaris OB1043 = details: Proteus vulgaris
Method: as §1, §2

E. coli CSH2 = details: Escherichia coli, 10^6 CFU/ml, read-out: Minimum Inhibitory Concentration
Method: as §1, §2

A. calcoaceticus No. 14 = details: Acinetobacter calcoaceticus, NO.14, A. calcoaceticus No. 14; 10^6 CFU/ml; read-out: Minimum Inhibitory Concentration
Method: as §1, §2

E. coli C/Rms149 = details: Escherichia coli, read-out: Minimum Inhibitory Concentration, E. coli C/Rms149; 10^6 CFU/ml
Method: as §1, §2

K. pneumoniae No. 42 = details: Klebsiella pneumoniae; K. pneumoniae No. 42; 10^6 CFU/ml; read-out: Minimum Inhibitory Concentration
Method: as §1, §2

S. aureus NIHJJC-1 = details: Staphylococcus aureus
Method: as §1, §2

E. coli ML1410/Rte16 = details: Escherichia coli, ML1410/RTE16, read-out: Minimum Inhibitory Concentration, E. coli ML1410/Rte16; 10^6 CFU/ml
Method: as §1, §2

P. maltophilia IID 1275 = details: Stenotrophomonas maltophilia, IID1275; P. maltophilia IID 1275; 10^6 CFU/ml; read-out: Minimum Inhibitory Concentration
Method: as §1, §2

S. aureus JS-1 = details: Staphylococcus aureus, JS1; S. aureus JS-1; 10^6 CFU/ml; read-out: Minimum Inhibitory Concentration
Method: as §1, §2

P. vulgaris No. 33 = details: Proteus vulgaris; P. vulgaris No. 33; 10^6 CFU/ml; read-out: Minimum Inhibitory Concentration
Method: as §1, §2

C. freundii No. 7 = details: Citrobacter freundii; C. freundii No. 7; 10^6 CFU/ml; read-out: Minimum Inhibitory Concentration
Method: as §1, §2

[1] = NO.162, S. marcescens No. 16-2, 10^6 CFU/ml, read-out: Minimum Inhibitory Concentration
[2] = NIHJJC1, S. aureus NIHJJC-1, 10^6 CFU/ml, read-out: Minimum Inhibitory Concentration
[3] = OB1043, P. vulgaris OB1043, 10^6 CFU/ml, read-out: Minimum Inhibitory Concentration

Row | SMILES | MIC (P. aeruginosa AKR17) | MIC (P. aeruginosa AK109) | MIC (P. cepacia 23) | MIC (P. mirabilis JY10) | MIC (E. coli CSH) | MIC (E. coli W3630/Rms212) | MIC (E. coli NIHJJC-2) | MIC (S. marcescens No. 16-2; [1]) | MIC (E. coli W3630/Rms213) | MIC (E. cloaceae Nek 39) | MIC (E. coli CSH2) | MIC (A. calcoaceticus No. 14) | MIC (E. coli C/Rms149) | MIC (K. pneumoniae No. 42) | MIC (S. aureus NIHJJC-1; [2]) | MIC (E. coli ML1410/Rte16) | MIC (P. maltophilia IID 1275) | MIC (S. aureus JS-1) | MIC (P. vulgaris No. 33) | MIC (C. freundii No. 7) | also measured
1 | CO/N=C(\C(=O)NC1C(=O)N2C(C(=O)[O-])=C(C[N+]3(C)CCc4cc(O)ccc4C3)CSC12)c1csc(N)n1 (stereo not drawn) [Ex. 10, 7-[(Z)-2-(2-aminothiazol-4-yl)-2-methoxyiminoacetamido]-3-(6-hydroxy-2-methyl-1,2,3,4-tetrahydro-2-isoquinolinium)methyl-3-cephem-4-carboxylate] | > 25 µg/mL | 1.56 µg/mL (≈ 2.79 µM) | 6.25 µg/mL (≈ 11.2 µM) | 0.78 µg/mL (≈ 1.4 µM) | 0.78 µg/mL (≈ 1.4 µM) | 0.2 µg/mL (≈ 0.358 µM) | 0.1 µg/mL (≈ 0.179 µM) | 6.25 µg/mL (≈ 11.2 µM) | 1.56 µg/mL (≈ 2.79 µM) | 0.78 µg/mL (≈ 1.4 µM) | ≤ 0.05 µg/mL | 25 µg/mL (≈ 44.8 µM) | 0.1 µg/mL (≈ 0.179 µM) | 0.2 µg/mL (≈ 0.358 µM) | 0.39 µg/mL (≈ 0.698 µM) | 0.1 µg/mL (≈ 0.179 µM) | > 25 µg/mL | 6.25 µg/mL (≈ 11.2 µM) | 0.1 µg/mL (≈ 0.179 µM) | 1.56 µg/mL (≈ 2.79 µM) | MIC (P. vulgaris OB1043; OB1043, read-out: Minimum Inhibitory Concentration): 0.39 µg/mL (≈ 0.698 µM)
2 | C[N+]1(CC2=C(C(=O)[O-])N3C(=O)C(NC(=O)C(=NOC4CCCC4)c4csc(N)n4)C3SC2)CCc2cc(O)c(O)cc2C1 (stereo not drawn) [Ex. 16-D, 7-[(Z)-2-(2-aminothiazol-4-yl)-2-cyclopentyloxyiminoacetamido]-3-(6,7-dihydroxy-2-methyl-1,2,3,4-tetrahydro-2-isoquinolinium)methyl-3-cephem-4-carboxylate] | 0.2 µg/mL (≈ 0.318 µM) | 0.05 µg/mL (≈ 0.0795 µM) | 0.0125 µg/mL (≈ 0.0199 µM) | 0.2 µg/mL (≈ 0.318 µM) | 0.1 µg/mL (≈ 0.159 µM) | 0.0125 µg/mL (≈ 0.0199 µM) | 0.1 µg/mL (≈ 0.159 µM) | – | 0.1 µg/mL (≈ 0.159 µM) | 0.0125 µg/mL (≈ 0.0199 µM) | 0.1 µg/mL (≈ 0.159 µM) | 1.56 µg/mL (≈ 2.48 µM) | 0.025 µg/mL (≈ 0.0398 µM) | 0.1 µg/mL (≈ 0.159 µM) | – | 0.025 µg/mL (≈ 0.0398 µM) | 12.5 µg/mL (≈ 19.9 µM) | 12.5 µg/mL (≈ 19.9 µM) | 0.1 µg/mL (≈ 0.159 µM) | 1.56 µg/mL (≈ 2.48 µM) | MIC (S. marcescens No. 16-2; NO.162, read-out: Minimum Inhibitory Concentration): 1.56 µg/mL (≈ 2.48 µM); MIC (P. vulgaris OB1043; [3]): 0.2 µg/mL (≈ 0.318 µM); MIC (S. aureus NIHJJC-1; NIHJJC1, read-out: Minimum Inhibitory Concentration): 1.56 µg/mL (≈ 2.48 µM)
3 | CO/N=C(\C(=O)NC1C(=O)N2C(C(=O)[O-])=C(C[N+]3(C)CCc4cc(OC(C)=O)ccc4C3)CSC12)c1csc(N)n1 (stereo not drawn) [Ex. 9, 7-[(Z)-2-(2-aminothiazol-4-yl)-2-methoxyiminoacetamido]-3-(6-acetoxy-2-methyl-1,2,3,4-tetrahydro-2-isoquinolinium)methyl-3-cephem-4-carboxylate] | 25 µg/mL (≈ 41.6 µM) | 3.12 µg/mL (≈ 5.19 µM) | 12.5 µg/mL (≈ 20.8 µM) | 1.56 µg/mL (≈ 2.6 µM) | 1.56 µg/mL (≈ 2.6 µM) | 0.2 µg/mL (≈ 0.333 µM) | 0.2 µg/mL (≈ 0.333 µM) | 12.5 µg/mL (≈ 20.8 µM) | 3.12 µg/mL (≈ 5.19 µM) | 1.56 µg/mL (≈ 2.6 µM) | 0.1 µg/mL (≈ 0.166 µM) | > 25 µg/mL | 0.2 µg/mL (≈ 0.333 µM) | 0.78 µg/mL (≈ 1.3 µM) | 0.39 µg/mL (≈ 0.649 µM) | 0.2 µg/mL (≈ 0.333 µM) | > 25 µg/mL | 12.5 µg/mL (≈ 20.8 µM) | 0.39 µg/mL (≈ 0.649 µM) | 6.25 µg/mL (≈ 10.4 µM) | MIC (P. vulgaris OB1043; [3]): 0.78 µg/mL (≈ 1.3 µM)
4 | CC(C)(ON=C(C(=O)NC1C(=O)N2C(C(=O)[O-])=C(C[N+]3(C)CCc4cc(O)c(O)cc4C3)CSC12)c1csc(N)n1)C(=O)O (stereo not drawn) [Ex. 15, 7-[(Z)-2-(2-aminothiazol-4-yl)-2-(1-carboxy-1-methylethoxyimino)acetamido]-3-(6,7-dihydroxy-2-methyl-1,2,3,4-tetrahydro-2-isoquinolinium)methyl-3-cephem-4-carboxylate] | 0.05 µg/mL (≈ 0.0773 µM) | 0.025 µg/mL (≈ 0.0387 µM) | 0.025 µg/mL (≈ 0.0387 µM) | 0.1 µg/mL (≈ 0.155 µM) | 0.05 µg/mL (≈ 0.0773 µM) | 0.025 µg/mL (≈ 0.0387 µM) | 0.025 µg/mL (≈ 0.0387 µM) | 0.39 µg/mL (≈ 0.603 µM) | 0.025 µg/mL (≈ 0.0387 µM) | < 0.006 µg/mL | 0.025 µg/mL (≈ 0.0387 µM) | 0.78 µg/mL (≈ 1.21 µM) | 0.0125 µg/mL (≈ 0.0193 µM) | 0.05 µg/mL (≈ 0.0773 µM) | 12.5 µg/mL (≈ 19.3 µM) | 0.025 µg/mL (≈ 0.0387 µM) | 3.12 µg/mL (≈ 4.82 µM) | 100 µg/mL (≈ 155 µM) | 1 µg/mL (≈ 1.55 µM) | 0.2 µg/mL (≈ 0.309 µM) | MIC (P. vulgaris OB1043; [3]): 0.05 µg/mL (≈ 0.0773 µM)
